Values of other authors as cited in EP0548940B1, “Insecticidal compositions” (SUMITOMO CHEMICAL COMPANY LIMITED, priority 1991, dated 1993).

Settings: at 25°C, water-diluted solution

Structure (SMILES) | pKa value
O=C(O)CCCCCCCC(=O)O [Azelaic acid] | Azelaic acid 4.8 (4.39)
OB(O)O [Boric acid] | Boric acid 4.8 (9.24)
